Test system: test plant species
Assay: Post-emergent herbicidal activity test (greenhouse, foliar spray, visual growth reduction)
Assay type: in vivo
Details: post-emergence, 336 h, ALOMY: blackgrass (Alopecurus myosuroides), 140 g ai/ha, 14 days after application, read-out: Visual Growth Reduction (%) 14 Days After Application, ALOMY
How it was run: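 Plants grown in greenhouse (15 h photoperiod, 23-29° C day/22-28° C night) to first or second true leaf stage were sprayed overhead with compound in acetone/water/isopropanol/DMSO/crop oil/X-77 carrier at 187 L/ha. Injury was scored visually after 14 d on a 0-100% scale versus solvent-blank and untreated controls.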

Which pest or weed control at 140 g/ha does the source give for `COC(=O)c1nc(-c2ccc(C(F)(F)F)cc2C(F)(F)F)ccc1Cl` [F17, Methyl 6-(2,4-bis(trifluoromethyl)phenyl)-3-chloropicolinate] here?
Its pest or weed control at 140 g/ha is 0 to 29%.

Same assay, conditions: post-emergence, 336 h, AMARE: redroot pigweed (Amaranthus retroflexus), 140 g ai/ha, 14 days after application, read-out: Visual Growth Reduction (%) 14 Days After Application, AMARE

For `COC(=O)c1nc(-c2ccc(C(F)(F)F)cc2C(F)(F)F)ccc1Cl` [F17, Methyl 6-(2,4-bis(trifluoromethyl)phenyl)-3-chloropicolinate], which pest or weed control at 140 g/ha is on record?
Its pest or weed control at 140 g/ha is 60 to 74%.

Same assay, conditions: post-emergence, 336 h, AVEFA: wild oat (Avena fatua), 140 g ai/ha, 14 days after application, read-out: Visual Growth Reduction (%) 14 Days After Application, AVEFA

For `COC(=O)c1nc(-c2ccc(C(F)(F)F)cc2C(F)(F)F)ccc1Cl` [F17, Methyl 6-(2,4-bis(trifluoromethyl)phenyl)-3-chloropicolinate], which pest or weed control at 140 g/ha is on record?
Its pest or weed control at 140 g/ha is 0 to 29%.

Same assay, conditions: post-emergence, 336 h, CHEAL: lambsquarters (Chenopodium album), 140 g ai/ha, 14 days after application, read-out: Visual Growth Reduction (%) 14 Days After Application, CHEAL

`COC(=O)c1nc(-c2ccc(C(F)(F)F)cc2C(F)(F)F)ccc1Cl` [F17, Methyl 6-(2,4-bis(trifluoromethyl)phenyl)-3-chloropicolinate] was tested. Which pest or weed control at 140 g/ha did it give?
The pest or weed control at 140 g/ha was 60 to 74%.

Same assay, conditions: post-emergence, 336 h, CIRAR: canada thistle (Cirsium arvense), 140 g ai/ha, 14 days after application, read-out: Visual Growth Reduction (%) 14 Days After Application, CIRAR

`COC(=O)c1nc(-c2ccc(C(F)(F)F)cc2C(F)(F)F)ccc1Cl` [F17, Methyl 6-(2,4-bis(trifluoromethyl)phenyl)-3-chloropicolinate] was tested. Which pest or weed control at 140 g/ha did it give?
Its pest or weed control at 140 g/ha is 0 to 29%.

Same assay, conditions: post-emergence, 336 h, CYPES: yellow nutsedge (Cyperus esculentus), 140 g ai/ha, 14 days after application, read-out: Visual Growth Reduction (%) 14 Days After Application, CYPES

With `COC(=O)c1nc(-c2ccc(C(F)(F)F)cc2C(F)(F)F)ccc1Cl` [F17, Methyl 6-(2,4-bis(trifluoromethyl)phenyl)-3-chloropicolinate] as the compound, how does the pest or weed control at 140 g/ha read?
Its pest or weed control at 140 g/ha is 0 to 29%.

Same assay, conditions: post-emergence, 336 h, DIGSA: crabgrass (Digitaria sanguinalis), 140 g ai/ha, 14 days after application, read-out: Visual Growth Reduction (%) 14 Days After Application, DIGSA

How did the pest or weed control at 140 g/ha turn out when `COC(=O)c1nc(-c2ccc(C(F)(F)F)cc2C(F)(F)F)ccc1Cl` [F17, Methyl 6-(2,4-bis(trifluoromethyl)phenyl)-3-chloropicolinate] was run?
The pest or weed control at 140 g/ha was 45 to 59%.

Same assay, conditions: post-emergence, 336 h, ECHCG: barnyardgrass (Echinochloa crus-galli), 140 g ai/ha, 14 days after application, read-out: Visual Growth Reduction (%) 14 Days After Application, ECHCG

With `COC(=O)c1nc(-c2ccc(C(F)(F)F)cc2OC)ncc1Cl` [F313, methyl 5-chloro-2-(2-methoxy-4-(trifluoromethyl)phenyl)pyrimidine-4-carboxylate] as the compound, how does the pest or weed control at 140 g/ha read?
The pest or weed control at 140 g/ha was 60 to 74%.

Same assay, conditions: post-emergence, 336 h, IPOHE: ivy-leaf morning glory (Ipomoea hederacea), 140 g ai/ha, 14 days after application, read-out: Visual Growth Reduction (%) 14 Days After Application, IPOHE

How did the pest or weed control at 140 g/ha turn out when `COC(=O)c1nc(-c2ccc(C(F)(F)F)cc2OC)ncc1Cl` [F313, methyl 5-chloro-2-(2-methoxy-4-(trifluoromethyl)phenyl)pyrimidine-4-carboxylate] was run?
The pest or weed control at 140 g/ha was 95 to 100%.

Same assay, conditions: post-emergence, 336 h, KCHSC: kochia (Bassia scoparia), 140 g ai/ha, 14 days after application, read-out: Visual Growth Reduction (%) 14 Days After Application, KCHSC

Which pest or weed control at 140 g/ha does the source give for `COC(=O)c1nc(-c2ccc(C(F)(F)F)cc2OC)ncc1Cl` [F313, methyl 5-chloro-2-(2-methoxy-4-(trifluoromethyl)phenyl)pyrimidine-4-carboxylate] here?
Its pest or weed control at 140 g/ha is 0 to 29%.

Same assay, conditions: post-emergence, 336 h, ORYSA: rice (Oryza sativa), 140 g ai/ha, 14 days after application, read-out: Visual Growth Reduction (%) 14 Days After Application, ORYSA

With `COC(=O)c1nc(-c2ccc(C(F)(F)F)cc2OC)ncc1Cl` [F313, methyl 5-chloro-2-(2-methoxy-4-(trifluoromethyl)phenyl)pyrimidine-4-carboxylate] as the compound, how does the pest or weed control at 140 g/ha read?
The pest or weed control at 140 g/ha was 0 to 29%.

Same assay, conditions: post-emergence, 336 h, SETFA: giant foxtail (Setaria faberi), 140 g ai/ha, 14 days after application, read-out: Visual Growth Reduction (%) 14 Days After Application, SETFA

How did the pest or weed control at 140 g/ha turn out when `COC(=O)c1nc(-c2ccc(C(F)(F)F)cc2OC)ncc1Cl` [F313, methyl 5-chloro-2-(2-methoxy-4-(trifluoromethyl)phenyl)pyrimidine-4-carboxylate] was run?
Its pest or weed control at 140 g/ha is 60 to 74%.

Same assay, conditions: post-emergence, 336 h, SORVU: grain sorghum (Sorghum vulgare), 140 g ai/ha, 14 days after application, read-out: Visual Growth Reduction (%) 14 Days After Application, SORVU

For `COC(=O)c1nc(-c2ccc(C(F)(F)F)cc2OC)ncc1Cl` [F313, methyl 5-chloro-2-(2-methoxy-4-(trifluoromethyl)phenyl)pyrimidine-4-carboxylate], which pest or weed control at 140 g/ha is on record?
The pest or weed control at 140 g/ha was 85 to 94%.

Same assay, conditions: post-emergence, 336 h, STEME: common chickweed (Stellaria media), 140 g ai/ha, 14 days after application, read-out: Visual Growth Reduction (%) 14 Days After Application, STEME

With `COC(=O)c1nc(-c2ccc(C(F)(F)F)cc2OC)ncc1Cl` [F313, methyl 5-chloro-2-(2-methoxy-4-(trifluoromethyl)phenyl)pyrimidine-4-carboxylate] as the compound, how does the pest or weed control at 140 g/ha read?
Its pest or weed control at 140 g/ha is 0 to 29%.

Same assay, conditions: post-emergence, 336 h, TRZAS: wheat, spring (Triticum aestivum), 140 g ai/ha, 14 days after application, read-out: Visual Growth Reduction (%) 14 Days After Application, TRZAS

Which pest or weed control at 140 g/ha does the source give for `COC(=O)c1nc(-c2ccc(C(F)(F)F)cc2OC)ncc1Cl` [F313, methyl 5-chloro-2-(2-methoxy-4-(trifluoromethyl)phenyl)pyrimidine-4-carboxylate] here?
Its pest or weed control at 140 g/ha is 0 to 29%.

Same assay, conditions: post-emergence, 336 h, barnyardgrass (Echinochloa crus-galli), 14 Days After Application, 140 g ai/ha, read-out: Visual Growth Reduction (%) ECHCG

How did the pest or weed control at 140 g/ha turn out when `COC(=O)c1nc(-c2ccc(C(F)(F)F)cc2C(F)(F)F)ccc1Cl` [F17, Methyl 6-(2,4-bis(trifluoromethyl)phenyl)-3-chloropicolinate] was run?
The pest or weed control at 140 g/ha was 0 to 29%.

Same assay, conditions: post-emergence, 336 h, blackgrass (Alopecurus myosuroides), 14 Days After Application, 140 g ai/ha, read-out: Visual Growth Reduction (%) ALOMY

With `COC(=O)c1nc(-c2ccc(C(F)(F)F)cc2OC)ncc1Cl` [F313, methyl 5-chloro-2-(2-methoxy-4-(trifluoromethyl)phenyl)pyrimidine-4-carboxylate] as the compound, how does the pest or weed control at 140 g/ha read?
The pest or weed control at 140 g/ha was 0 to 29%.

Same assay, conditions: post-emergence, 336 h, canada thistle (Cirsium arvense), 14 Days After Application, 140 g ai/ha, read-out: Visual Growth Reduction (%) CIRAR

For `COC(=O)c1nc(-c2ccc(C(F)(F)F)cc2OC)ncc1Cl` [F313, methyl 5-chloro-2-(2-methoxy-4-(trifluoromethyl)phenyl)pyrimidine-4-carboxylate], which pest or weed control at 140 g/ha is on record?
Its pest or weed control at 140 g/ha is 45 to 59%.

Same assay, conditions: post-emergence, 336 h, common chickweed (Stellaria media), 14 Days After Application, 140 g ai/ha, read-out: Visual Growth Reduction (%) STEME

For `COC(=O)c1nc(-c2ccc(C(F)(F)F)cc2C(F)(F)F)ccc1Cl` [F17, Methyl 6-(2,4-bis(trifluoromethyl)phenyl)-3-chloropicolinate], which pest or weed control at 140 g/ha is on record?
Its pest or weed control at 140 g/ha is 0 to 29%.

Same assay, conditions: post-emergence, 336 h, crabgrass (Digitaria sanguinalis), 14 Days After Application, 140 g ai/ha, read-out: Visual Growth Reduction (%) DIGSA

With `COC(=O)c1nc(-c2ccc(C(F)(F)F)cc2OC)ncc1Cl` [F313, methyl 5-chloro-2-(2-methoxy-4-(trifluoromethyl)phenyl)pyrimidine-4-carboxylate] as the compound, how does the pest or weed control at 140 g/ha read?
Its pest or weed control at 140 g/ha is 75 to 84%.

Same assay, conditions: post-emergence, 336 h, giant foxtail (Setaria faberi), 14 Days After Application, 140 g ai/ha, read-out: Visual Growth Reduction (%) SETFA

Which pest or weed control at 140 g/ha does the source give for `COC(=O)c1nc(-c2ccc(C(F)(F)F)cc2C(F)(F)F)ccc1Cl` [F17, Methyl 6-(2,4-bis(trifluoromethyl)phenyl)-3-chloropicolinate] here?
The pest or weed control at 140 g/ha was 0 to 29%.

Same assay, conditions: post-emergence, 336 h, ivy-leaf morning glory (Ipomoea hederacea), 14 Days After Application, 140 g ai/ha, read-out: Visual Growth Reduction (%) IPOHE

How did the pest or weed control at 140 g/ha turn out when `COC(=O)c1nc(-c2ccc(C(F)(F)F)cc2C(F)(F)F)ccc1Cl` [F17, Methyl 6-(2,4-bis(trifluoromethyl)phenyl)-3-chloropicolinate] was run?
The pest or weed control at 140 g/ha was 95 to 100%.

Same assay, conditions: post-emergence, 336 h, johnsongrass (Sorghum vulgare), 14 Days After Application, 140 g ai/ha, read-out: Visual Growth Reduction (%) SORVU

For `COC(=O)c1nc(-c2ccc(C(F)(F)F)cc2C(F)(F)F)ccc1Cl` [F17, Methyl 6-(2,4-bis(trifluoromethyl)phenyl)-3-chloropicolinate], which pest or weed control at 140 g/ha is on record?
The pest or weed control at 140 g/ha was 85 to 94%.

Same assay, conditions: post-emergence, 336 h, kochia (Bassia scoparia), 14 Days After Application, 140 g ai/ha, read-out: Visual Growth Reduction (%) KCHSC

For `COC(=O)c1nc(-c2ccc(C(F)(F)F)cc2C(F)(F)F)ccc1Cl` [F17, Methyl 6-(2,4-bis(trifluoromethyl)phenyl)-3-chloropicolinate], which pest or weed control at 140 g/ha is on record?
The pest or weed control at 140 g/ha was 0 to 29%.

Same assay, conditions: post-emergence, 336 h, lambsquarters (Chenopodium album), 14 Days After Application, 140 g ai/ha, read-out: Visual Growth Reduction (%) CHEAL

For `COC(=O)c1nc(-c2ccc(C(F)(F)F)cc2OC)ncc1Cl` [F313, methyl 5-chloro-2-(2-methoxy-4-(trifluoromethyl)phenyl)pyrimidine-4-carboxylate], which pest or weed control at 140 g/ha is on record?
The pest or weed control at 140 g/ha was 30 to 44%.

Same assay, conditions: post-emergence, 336 h, redroot pigweed (Amaranthus retroflexus), 14 Days After Application, 140 g ai/ha, read-out: Visual Growth Reduction (%) AMARE

How did the pest or weed control at 140 g/ha turn out when `COC(=O)c1nc(-c2ccc(C(F)(F)F)cc2OC)ncc1Cl` [F313, methyl 5-chloro-2-(2-methoxy-4-(trifluoromethyl)phenyl)pyrimidine-4-carboxylate] was run?
The pest or weed control at 140 g/ha was 45 to 59%.

Same assay, conditions: post-emergence, 336 h, rice (Oryza sativa), 14 Days After Application, 140 g ai/ha, read-out: Visual Growth Reduction (%) ORYSA

`COC(=O)c1nc(-c2ccc(C(F)(F)F)cc2C(F)(F)F)ccc1Cl` [F17, Methyl 6-(2,4-bis(trifluoromethyl)phenyl)-3-chloropicolinate] was tested. Which pest or weed control at 140 g/ha did it give?
The pest or weed control at 140 g/ha was 0 to 29%.

Same assay, conditions: post-emergence, 336 h, wheat, spring (Triticum aestivum), 14 Days After Application, 140 g ai/ha, read-out: Visual Growth Reduction (%) TRZAS

With `COC(=O)c1nc(-c2ccc(C(F)(F)F)cc2C(F)(F)F)ccc1Cl` [F17, Methyl 6-(2,4-bis(trifluoromethyl)phenyl)-3-chloropicolinate] as the compound, how does the pest or weed control at 140 g/ha read?
Its pest or weed control at 140 g/ha is 0 to 29%.

Same assay, conditions: post-emergence, 336 h, wild oat (Avena fatua), 14 Days After Application, 140 g ai/ha, read-out: Visual Growth Reduction (%) AVEFA

`COC(=O)c1nc(-c2ccc(C(F)(F)F)cc2OC)ncc1Cl` [F313, methyl 5-chloro-2-(2-methoxy-4-(trifluoromethyl)phenyl)pyrimidine-4-carboxylate] was tested. Which pest or weed control at 140 g/ha did it give?
Its pest or weed control at 140 g/ha is 0 to 29%.

Same assay, conditions: post-emergence, 336 h, yellow nutsedge (Cyperus esculentus), 14 Days After Application, 140 g ai/ha, read-out: Visual Growth Reduction (%) CYPES

Which pest or weed control at 140 g/ha does the source give for `COC(=O)c1nc(-c2ccc(C(F)(F)F)cc2OC)ncc1Cl` [F313, methyl 5-chloro-2-(2-methoxy-4-(trifluoromethyl)phenyl)pyrimidine-4-carboxylate] here?
The pest or weed control at 140 g/ha was 0 to 29%.

Source: patent publication US20230017045A1, “PYRIDINE AND PYRIMIDINE CARBOXYLATE HERBICIDES AND METHODS OF USE THEREOF” (Dow AgroSciences LLC, priority 2017, published 2023)
